In DBAASP:
In brackets after ≈: the same amount, converted by molar mass.

Assays:
Assay in all cases: ≥ marks a high value that may be exact or a test limit, other limits are often not marked, values filed in µg/mL are converted to µM
Saccharomyces cerevisiae = test system: Saccharomyces cerevisiae
[1] = test system: Escherichia coli ATCC 25922
[2] = test system: Pseudomonas aeruginosa ATCC 15692
[3] = test system: Staphylococcus aureus ATCC 25923
Micrococcus luteus = test system: Micrococcus luteus
[4] = test system: Acinetobacter baumannii NM8
[5] = test system: Candida albicans ATCC 90028
[6] = test system: Escherichia coli ATCC 25726
[7] = test system: Acinetobacter baumannii NM35
Candida albicans = test system: Candida albicans
[8] = test system: Pseudomonas aeruginosa H103
Escherichia coli UB1005 = test system: Escherichia coli UB1005
[9] = test system: Enterococcus faecalis ATCC 29212
[10] = test system: Salmonella enterica serovar Typhimurium
[11] = test system: Staphylococcus epidermidis
[12] = test system: Pseudomonas corrugata DSM 7228
[13] = test system: Pseudomonas syringae pv. syringae DSM 10604
[14] = test system: Xanthomonas vesicatoria DSM 50861
[15] = test system: Clavibacter michiganensis subsp. michiganensis DSM 46294
[16] = test system: Pseudomonas syringae pv. tomato DC3000
[17] = test system: Pectobacterium carotovorum subsp. carotovorum DSM 30168
[18] = test system: Streptococcus mutans UA159
[19] = test system: Streptococcus mutans GS-5
[20] = test system: Streptococcus gordonii ATCC 10558
[21] = test system: Streptococcus sanguinis ATCC 49295
Klebsiella pneumoniae = test system: Klebsiella pneumoniae
Bacillus subtilis = test system: Bacillus subtilis
Escherichia coli JM109 = test system: Escherichia coli JM109

`CC[C@H](C)[C@H](NC(=O)[C@@H](N)Cc1ccccc1)C(=O)NCC(=O)N[C@@H](C)C(=O)N[C@@H](CC(C)C)C(=O)N[C@@H](CC(C)C)C(=O)N[C@@H](CCCN=C(N)N)C(=O)N1CCC[C@H]1C(=O)N[C@@H](C)C(=O)N[C@@H](CC(C)C)C(=O)N[C@@H](CCCCN)C(=O)N[C@@H](CC(C)C)C(=O)N[C@@H](CC(C)C)C(=O)N[C@@H](C)C(=O)NCC(=O)N[C@@H](CCCCN)C(N)=O` [FIGALLRPALKLLAGK] was tested. Which MIC (Saccharomyces cerevisiae) did it give?
The MIC was ≥ 128 µM.

What about the MIC [1] of the same compound?
Its MIC is 32 µM (≈ 53.8 µg/mL).

And the MIC [2]?
Its MIC is ≥ 256 µM.

And the MIC [3]?
The MIC was 16 µM (≈ 26.9 µg/mL).

What about the MIC (Micrococcus luteus) of the same compound?
Its MIC is 4 µM (≈ 6.72 µg/mL).

For `CC[C@H](C)[C@H](NC(=O)CNC(=O)[C@H](CCCCN)NC(=O)[C@@H](NC(=O)[C@H](CC(C)C)NC(=O)[C@H](CO)NC(=O)CNC(=O)[C@H](CC(C)C)NC(=O)CNC(=O)[C@H](CCCCN)NC(=O)[C@H](CCCCN)NC(=O)[C@H](Cc1ccccc1)NC(=O)[C@@H](NC(=O)[C@H](CCCCN)NC(=O)[C@H](CCCCN)NC(=O)[C@H](CC(C)C)NC(=O)CN)[C@@H](C)CC)C(C)C)C(=O)N[C@@H](C)C(=O)N[C@@H](C)C(=O)N[C@@H](Cc1cnc[nH]1)C(=O)N[C@H](C(=O)N[C@@H](C)C(=O)N[C@@H](CO)C(N)=O)C(C)C` [GLKKIFKKGLGSLVKGIAAHVAS], which MIC [4] is on record?
Its MIC is 5 µM (≈ 11.6 µg/mL).

What about the MIC [5] of the same compound?
Its MIC is 10 µM (≈ 23.2 µg/mL).

What about the MIC [6] of the same compound?
Its MIC is 10 µM (≈ 23.2 µg/mL).

And the MIC [3]?
The MIC was 250 µM (≈ 580 µg/mL).

What about the MIC [7] of the same compound?
The MIC was 2.5 µM (≈ 5.8 µg/mL).

Which results are given for `CC[C@H](C)[C@H](N)C(=O)N[C@@H](CCCN=C(N)N)C(=O)N[C@@H](CCSC)C(=O)N[C@@H](CCCN=C(N)N)C(=O)N[C@H](C(=O)N[C@@H](CCCN=C(N)N)C(=O)N[C@H](C(=O)N[C@@H](CC(C)C)C(=O)N[C@@H](CC(C)C)C(=O)O)C(C)C)[C@@H](C)CC` [IRMRIRVLL]?
MIC (Candida albicans): 16 µM (≈ 18.7 µg/mL); MIC [8]: 16 µM (≈ 18.7 µg/mL); MIC (Escherichia coli UB1005): 2 µM (≈ 2.34 µg/mL); MIC [9]: 16 µM (≈ 18.7 µg/mL); MIC [10]: 4 µM (≈ 4.68 µg/mL); MIC [3]: 4 µM (≈ 4.68 µg/mL); MIC [11]: 2 µM (≈ 2.34 µg/mL)

With `CC[C@H](C)[C@H](NC(=O)[C@H](CC(C)C)NC(=O)[C@H](CCSC)NC(=O)[C@H](CCCN=C(N)N)NC(=O)[C@H](Cc1c[nH]c2ccccc12)NC(=O)[C@H](Cc1c[nH]c2ccccc12)NC(=O)[C@H](CCCCN)NC(=O)[C@H](Cc1ccccc1)NC(=O)[C@@H](N)CCCCN)C(=O)O` [KFKWWRMLI] as the compound, how does the MIC (Candida albicans) read?
The MIC was 4.6 µM (≈ 6.02 µg/mL).

And the MIC [8]?
The MIC was 4.6 µM (≈ 6.02 µg/mL).

And the MIC (Escherichia coli UB1005)?
Its MIC is 0.6 µM (≈ 0.785 µg/mL).

What about the MIC [9] of the same compound?
Its MIC is 2.3 µM (≈ 3.01 µg/mL).

What about the MIC [10] of the same compound?
The MIC was 2.3 µM (≈ 3.01 µg/mL).

What about the MIC [3] of the same compound?
The MIC was 1.2 µM (≈ 1.57 µg/mL).

What about the MIC [11] of the same compound?
Its MIC is 0.6 µM (≈ 0.785 µg/mL).

Which MIC [12] does the source give for `CC(C)C[C@H](NC(=O)[C@H](C)NC(=O)[C@H](CCCCN)NC(=O)[C@H](CCCCN)NC(=O)[C@H](C)NC(=O)[C@H](Cc1ccccc1)NC(=O)[C@H](CCCN=C(N)N)NC(=O)[C@@H](N)CC(C)C)C(=O)N[C@@H](CCCCN)C(=O)N[C@@H](CCCCN)C(=O)N[C@@H](CC(C)C)C(=O)N[C@@H](Cc1ccccc1)C(N)=O` [LRFAKKALKKLF] here?
The MIC was 0.684 µM (≈ 0.999 µg/mL).

What about the MIC [13] of the same compound?
The MIC was 0.171 µM (≈ 0.25 µg/mL).

And the MIC [14]?
Its MIC is 1.71 µM (≈ 2.5 µg/mL).

And the MIC [15]?
The MIC was 1.71 µM (≈ 2.5 µg/mL).

And the MIC [16]?
Its MIC is 0.171 µM (≈ 0.25 µg/mL).

What about the MIC [17] of the same compound?
Its MIC is 6.84 µM (≈ 9.99 µg/mL).

`CC(C)C[C@H](NC(=O)[C@H](CCCN=C(N)N)NC(=O)[C@H](Cc1ccccc1)NC(=O)[C@H](Cc1ccccc1)NC(=O)[C@@H](NC(=O)[C@H](CO)NC(=O)[C@@H](N)CC(C)C)[C@@H](C)O)C(=O)N[C@@H](Cc1ccccc1)C(=O)N[C@@H](CC(N)=O)C(=O)N[C@@H](CCCN=C(N)N)C(=O)N[C@@H](CO)C(=O)N[C@@H](Cc1ccccc1)C(=O)N[C@H](C(=O)N[C@@H](CCC(N)=O)C(=O)O)[C@@H](C)O` [LSTFFRLFNRSFTQ] was tested. Which MIC [18] did it give?
The MIC was ≥ 145 µM.

What about the MIC [19] of the same compound?
Its MIC is ≥ 145 µM.

What about the MIC [20] of the same compound?
The MIC was ≥ 145 µM.

What about the MIC [21] of the same compound?
The MIC was ≥ 145 µM.

What does the source list for `CC[C@H](C)[C@H](NC(=O)[C@H](CC(C)C)NC(=O)[C@H](CCCN=C(N)N)NC(=O)[C@H](CCCCN)NC(=O)[C@@H](NC(=O)[C@H](CC(C)C)NC(=O)[C@H](CCCCN)NC(=O)[C@H](CCCCN)NC(=O)[C@H](CCCN=C(N)N)NC(=O)[C@H](CCCCN)NC(=O)[C@H](CCCCN)NC(=O)[C@@H](N)CCCN=C(N)N)[C@@H](C)CC)C(N)=O` [RKKRKKLIKRLI]?
MIC [12]: 0.316 µM (≈ 0.5 µg/mL); MIC [13]: 0.0633 µM (≈ 0.1 µg/mL); MIC [14]: 3.16 µM (≈ 5 µg/mL); MIC [15]: 3.16 µM (≈ 5 µg/mL); MIC [16]: 6.33 µM (≈ 9.99 µg/mL); MIC [17]: 6.33 µM (≈ 9.99 µg/mL)

What does the source list for `CC[C@H](C)[C@H](NC(=O)[C@H](CCCCN)NC(=O)[C@H](CCCCN)NC(=O)[C@H](Cc1ccccc1)NC(=O)[C@@H](NC(=O)[C@H](CCCCN)NC(=O)[C@H](Cc1c[nH]c2ccccc12)NC(=O)[C@@H](N)CCCN=C(N)N)[C@@H](C)CC)C(=O)N[C@@H](CCC(=O)O)C(=O)N[C@@H](CCCCN)C(=O)N[C@@H](CCSC)C(=O)NCC(=O)NCC(=O)N[C@@H](CO)C(=O)N[C@@H](Cc1ccc(O)cc1)C(=O)N[C@@H](CS)C(=O)N[C@@H](CC(N)=O)C(=O)N[C@@H](CCCN=C(N)N)C(=O)N[C@@H](CCCN=C(N)N)C(=O)N[C@H](C(=O)NCC(=O)N[C@@H](CCCCN)C(=O)N[C@@H](CS)C(=O)N[C@@H](CCC(N)=O)C(=O)N[C@@H](CCCN=C(N)N)C(=O)N[C@@H](CCSC)C(=O)O)[C@@H](C)O` [RWKIFKKIEKMGGSYCNRRTGKCQRM]?
MIC (Candida albicans): 50 µM (≈ 160 µg/mL); MIC (Saccharomyces cerevisiae): 28.3 µM (≈ 90.7 µg/mL); MIC (Klebsiella pneumoniae): 80 µM (≈ 256 µg/mL); MIC (Bacillus subtilis): 10 µM (≈ 32.1 µg/mL); MIC (Escherichia coli JM109): 28.3 µM (≈ 90.7 µg/mL)

Which results are given for `CC(C)C[C@H](NC(=O)[C@H](CCCN=C(N)N)NC(=O)[C@H](Cc1ccccc1)NC(=O)[C@H](Cc1ccccc1)NC(=O)[C@@H](NC(=O)[C@@H](N)CO)[C@@H](C)O)C(=O)N[C@@H](Cc1ccccc1)C(=O)N[C@@H](CC(N)=O)C(=O)N[C@@H](CCCN=C(N)N)C(=O)N[C@@H](CO)C(=O)N[C@@H](Cc1ccccc1)C(=O)N[C@H](C(=O)N[C@@H](CCC(N)=O)C(=O)NCC(=O)N[C@@H](CCCN=C(N)N)C(=O)N[C@@H](CCCN=C(N)N)C(=O)N[C@@H](CCCN=C(N)N)C(=O)N[C@@H](CCCN=C(N)N)C(=O)N[C@@H](CO)C(=O)N[C@H](C(=O)N[C@@H](CCC(N)=O)C(=O)N[C@@H](Cc1c[nH]c2ccccc12)C(=O)N[C@@H](CS)C(=O)N[C@@H](C)C(=O)O)C(C)C)[C@@H](C)O` [STFFRLFNRSFTQGRRRRSVQWCA]?
MIC [18]: 3.55 µM (≈ 10.7 µg/mL); MIC [19]: 4.43 µM (≈ 13.3 µg/mL); MIC [20]: 16.6 µM (≈ 49.8 µg/mL); MIC [21]: ≥ 33.1 µM

Which results are given for `CC(C)C[C@H](NC(=O)[C@H](CCCN=C(N)N)NC(=O)[C@H](Cc1ccccc1)NC(=O)[C@H](Cc1ccccc1)NC(=O)[C@@H](NC(=O)[C@@H](N)CO)[C@@H](C)O)C(=O)N[C@@H](Cc1ccccc1)C(=O)N[C@@H](CC(N)=O)C(=O)N[C@@H](CCCN=C(N)N)C(=O)N[C@@H](CO)C(=O)N[C@@H](Cc1ccccc1)C(=O)N[C@H](C(=O)N[C@@H](CCC(N)=O)C(=O)O)[C@@H](C)O` [STFFRLFNRSFTQ]?
MIC [18]: ≥ 155 µM; MIC [19]: ≥ 155 µM; MIC [20]: ≥ 155 µM; MIC [21]: ≥ 155 µM

With `CC(C)C[C@H](NC(=O)[C@H](CCCN=C(N)N)NC(=O)[C@H](Cc1ccccc1)NC(=O)[C@H](Cc1ccccc1)NC(=O)[C@@H](N)[C@@H](C)O)C(=O)N[C@@H](Cc1ccccc1)C(=O)N[C@@H](CC(N)=O)C(=O)N[C@@H](CCCN=C(N)N)C(=O)NCC(=O)N[C@@H](CCCN=C(N)N)C(=O)N[C@@H](CCCN=C(N)N)C(=O)N[C@@H](CCCN=C(N)N)C(=O)N[C@@H](CCCN=C(N)N)C(=O)N[C@@H](CO)C(=O)N[C@H](C(=O)N[C@@H](CCC(N)=O)C(=O)N[C@@H](Cc1c[nH]c2ccccc12)C(=O)N[C@@H](CS)C(=O)N[C@@H](C)C(=O)O)C(C)C` [TFFRLFNRGRRRRSVQWCA] as the compound, how does the MIC [18] read?
Its MIC is 4.34 µM (≈ 10.7 µg/mL).

What about the MIC [19] of the same compound?
The MIC was 5.06 µM (≈ 12.4 µg/mL).

And the MIC [20]?
Its MIC is 20.3 µM (≈ 49.8 µg/mL).

And the MIC [21]?
The MIC was ≥ 40.5 µM.
